According to patent publication US11365185B2, “Lysophosphatidic acid receptor 1 (LPAR1) inhibitor compounds” (Eli Lilly and Company, priority 2017, dated 2022):
Counter-ions that a name gives are not always drawn.

Columns and labels:
LPAR1 [1] = biological target: T1, LPAR1 (Homo sapiens (Human), UniProt Q92633); assay: LPAR1 Calcium Flux Assay; type: cell-based; conditions: U937 cells overexpressing human LPAR1, LPA-stimulated calcium, FLIPR
Experimental: LPAR1 Calcium Flux Assays
(§1) A cDNA encoding the human LPAR1 receptor is synthesized and cloned into pDNA3 expression plasmid. The plasmid is transfected in U937 cells using Lipofectamine 2000 (Invitrogen Corp., USA). Clones stably expressing human LPAR1 are selected using puromycin and identified as cells that show Ca-influx in response to LPA.
U937 cells overexpressing human LPAR1 are seeded at 100,000 cells per well in a 96-well fibronectin (10 ug/ml) coated plate in 60 μl of assay buffer (HBSS containing 20 mM HEPES and 0.2% BSA) and then incubated for 60 minutes. Then 50 μl of a calcium indicator dye (Fluo-4 NW, Molecular Probes) are added to each well and incubation continued for 30 minutes at 37° C. and then 30 minutes at room temperature. 50 μl of test compounds in 4% DMSO are added to the cells and incubation continued at room temperature for 40 minutes. Cells are the stimulated by the addition of 50 μl of 128 nM LPA and intracellular calcium is measured using the FLIPR TETRA (Molecular Devices). IC50 values are determined using “Genedata Screener” analysis tool.
Target sequence in this assay (Q92633 whole entry): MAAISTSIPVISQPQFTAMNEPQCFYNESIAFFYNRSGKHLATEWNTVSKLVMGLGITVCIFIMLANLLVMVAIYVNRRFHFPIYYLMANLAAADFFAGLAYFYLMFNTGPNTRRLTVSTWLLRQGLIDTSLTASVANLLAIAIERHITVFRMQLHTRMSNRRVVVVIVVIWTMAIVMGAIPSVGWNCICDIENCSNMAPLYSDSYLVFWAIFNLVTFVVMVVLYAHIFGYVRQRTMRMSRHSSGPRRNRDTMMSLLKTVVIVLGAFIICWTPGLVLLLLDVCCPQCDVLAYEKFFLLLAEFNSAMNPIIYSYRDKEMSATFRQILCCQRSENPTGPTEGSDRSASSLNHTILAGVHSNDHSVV

human LPAR3 = human LPAR3 (Homo sapiens (Human), UniProt Q9UBY5); assay: LPAR3 Calcium Flux Assay; type: cell-based; conditions: U2OS cells overexpressing human LPAR3, LPA-stimulated calcium, FLIPR
human LPAR3, sequence (Q9UBY5 whole entry): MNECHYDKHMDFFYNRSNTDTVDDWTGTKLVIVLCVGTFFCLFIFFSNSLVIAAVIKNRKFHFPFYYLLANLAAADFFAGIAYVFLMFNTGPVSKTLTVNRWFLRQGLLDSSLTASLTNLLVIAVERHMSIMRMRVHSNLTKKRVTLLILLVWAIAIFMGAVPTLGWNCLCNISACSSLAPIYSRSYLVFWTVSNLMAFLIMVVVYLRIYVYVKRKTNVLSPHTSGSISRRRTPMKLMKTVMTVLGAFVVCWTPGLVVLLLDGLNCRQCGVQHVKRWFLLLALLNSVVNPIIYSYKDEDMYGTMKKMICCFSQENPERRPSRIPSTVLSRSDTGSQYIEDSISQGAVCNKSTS
Experimental: LPAR3 Calcium Flux Assays
as §1, with “LPAR3” for “LPAR1”, “U2OS” for “U937”, “neomycin” for “puromycin”
U2OS cells overexpressing human LPAR3 are seeded at 20,000-40,000 cells per well in a 96-well poly-D-lysine coated plate one day before the assay. Prior to the assay, the cells are washed once with assay buffer (HBSS containing 20 mM HEPES and 0.2% BSA) and then incubated in 50 μl of assay buffer for 60 minutes. Then 50 μl of a calcium indicator dye (Fluo-4 NW, Molecular Probes) are added to each well and incubation is continued for 30 minutes at 37° C. and then 30 minutes at room temperature. 50 μl of test compounds in 4% DMSO are added to the cells and incubation continued at room temperature for 40 minutes. Cells are stimulated by the addition of 50 μl of 128 nM LPA and intracellular calcium is measured using the FLIPR TETRA (Molecular Devices). IC50 values are determined using “Genedata Screener” analysis tool.

[2] = system: Human hepatic stellate cell line LX-2; assay: Calcium Influx of Human Hepatic Stellate Cells (LX-2); type: cell-based; conditions: LX-2 cells, LPA-stimulated calcium influx
Experimental: Calcium Influx of Human Hepatic Stellate Cells (LX-2)
Human hepatic stellate cell line LX-2 is purchased from EMD Millpore. LX-2 cells are seeded at 20,000-40,000 cells per well in a 96-well poly-D-lysine coated plate one day before the assay. Prior to the assay, the cells are washed once with assay buffer (HBSS containing 20 mM HEPES and 0.2% BSA) and then incubated in 50 μl of assay buffer for 60 minutes. Then 50 μl of a calcium indicator dye (Fluo-4 NW, Molecular Probes) are added to each well and incubation is continued for 30 minutes at 37° C. and then 30 minutes at room temperature. 50 μl of test compounds in 4% DMSO are added to the cells and incubation is continued at room temperature for 40 minutes. Cells are stimulated by the addition of 50 μl of 128 nM LPA and intracellular calcium is measured using the FLIPR TETRA (Molecular Devices). IC50 values are determined using “Genedata Screener” analysis tool.

LPAR1 [3] = biological target: T1, LPAR1; assay: LPAR1 Membrane Binding Assay; conditions: membrane containing LPAR1, radio labeled ligand, SPA
Experimental: LPAR1 Membrane Binding Assay
The ability of a compound to inhibit binding of a ligand (1-(4′-(4-(((benzyloxy)carbonyl)amino)-3-methylisoxazol-5-yl)-[1,1′-biphenyl]-4-yl)cyclopropane-1-carboxylic acid) to LPAR1 is assessed via a membrane binding assay. Membrane containing LPAR1 was purchased from Cerep (Cat. No. 290312RB). Prior to the assay, membrane is thawed and homogenized for 15 seconds. 50 μl of test compounds and 50 μl of radio labeled ligand are added to the 96-well plates and then 50 of μl membrane (50-400 ug/ml) are added. Next, 50 μl of SPA PVT WGA beads are added (1-5 mg/ml) and the plates are sealed and incubated at room temperate for 5 minutes. Radio activity is measured by Beta Counter and IC50 values are determined using “Genedata Screener” analysis tool.
Target sequence in this assay (Q92633 whole entry, species assumed): as the sequence (Q92633 whole entry) above

Structure (SMILES) | IC50 (LPAR1 [1]) [nM] | IC50 (human LPAR3) [nM] | IC50 [2] [nM] | Ki (LPAR1 [3]) [nM]
Cn1ncc(-c2ccc(-c3ccc(C4(C(=O)O)CC4)cc3)cn2)c1Nc1cncc(OC(C)(C)C)n1 [Example 1, 1-[4-[6-[5-[(6-tert-butoxypyrazin-2-yl)amino]-1-methyl-pyrazol-4-yl]-3-pyridyl]phenyl]cyclopropanecarboxylic Acid] | 74.4 | 1330 | 37.2 | 
Cn1ncc(-c2ccc(-c3ccc(C4(C(=O)O)CC4)cc3)cn2)c1Nc1cncc(OC2CCC2)n1 [Example 2, 1-[4-[6-[5-[[6-(cyclobutoxy)pyrazin-2-yl]amino]-1-methyl-pyrazol-4-yl]-3-pyridyl]phenyl]cyclopropanecarboxylic Acid] | 17.2 | 327 | 9.22 | 
Cn1ncc(-c2ncc(-c3ccc(C4(C(=O)O)CC4)cc3)cc2F)c1Nc1cncc(OC2CC2)n1 [Example 3, 1-[4-[6-[5-[[6-(cyclopropoxy)pyrazin-2-yl]amino]-1-methyl-pyrazol-4-yl]-5-fluoro-3-pyridyl]phenyl]cyclopropanecarboxylic Acid; Hydrochloride] | 8.61 | 2480 | 3.8 | 44.2
Cn1ncc(-c2ncc(-c3ccc(C4(C(=O)O)CC4)cc3)cc2F)c1Nc1cncc(C(C)(C)F)n1 [Example 4, 1-[4-[5-fluoro-6-[5-[[6-(1-fluoro-1-methyl-ethyl)pyrazin-2-yl]amino]-1-methyl-pyrazol-4-yl]-3-pyridyl]phenyl]cyclopropanecarboxylic Acid Hydrochloride] | 16.7 | 1590 | 8.67 | 80.5
Cn1ncc(-c2ccc(-c3ccc(C4(C(=O)O)CC4)cc3)cn2)c1Nc1cncc(OC2CC(F)(F)C2)n1 [Example 5, 1-[4-[6-[5-[[6-(3,3-difluorocyclobutoxy)pyrazin-2-yl]amino]-1-methyl-pyrazol-4-yl]-3-pyridyl]phenyl]cyclopropanecarboxylic Acid] | 26.9 | 49.6 | 17.1 | 51.4
COC(C)(C)c1cncc(Nc2c(-c3ccc(-c4ccc(C5(C(=O)O)CC5)cc4)cn3)cnn2C)n1 [Example 6, 1-[4-[6-[5-[[6-(1-methoxy-1-methyl-ethyl)pyrazin-2-yl]amino]-1-methyl-pyrazol-4-yl]-3-pyridyl]phenyl]cyclopropanecarboxylic Acid; Hydrochloride] | 122 | 5270 | 60.5 | 115
Cc1cc(-c2ccc(-c3cnn(C)c3Nc3cncc(OC(C)C)n3)nc2)ccc1C1(C(=O)O)CC1 [Example 7, 1-[4-[6-[5-[(6-isopropoxypyrazin-2-yl)amino]-1-methyl-pyrazol-4-yl]-3-pyridyl]-2-methyl-phenyl]cyclopropanecarboxylic Acid; Hydrochloride] | 27.1 | 1050 | 16.3 | 72.3
Cn1ncc(-c2ccc(-c3ccc(C4(C(=O)O)CC4)c(C(F)(F)F)c3)cn2)c1Nc1cncc(OC2CC2)n1 [Example 8, 1-[4-[6-[5-[[6-(cyclopropoxy)pyrazin-2-yl]amino]-1-methyl-pyrazol-4-yl]-3-pyridyl]-2-(trifluoromethyl)phenyl]cyclopropanecarboxylic Acid; Hydrochloride] |  |  | 7.13 | 
Cn1ncc(-c2ccc(-c3ccc(C4(C(=O)O)CC4)c(C#N)c3)cn2)c1Nc1cncc(OC2CC2)n1 [Example 9, 1-[2-cyano-4-[6-[5-[[6-(cyclopropoxy)pyrazin-2-yl]amino]-1-methyl-pyrazol-4-yl]-3-pyridyl]phenyl]cyclopropanecarboxylic Acid; Hydrochloride] | 17.9 | > 10000 | 10.5 | 
Cn1ncc(-c2ccc(-c3ccc(C4(C(=O)O)CC4)cc3)cn2)c1Nc1cncc(OC2CC2)n1 [Example 10, 1-[4-[6-[5-[[6-(cyclopropoxy)pyrazin-2-yl]amino]-1-methyl-pyrazol-4-yl]-3-pyridyl]phenyl]cyclopropanecarboxylic Acid] | 9.86 | 4420 | 5.41 | 12.5
CC(C)Oc1cncc(Nc2c(-c3ncc(-c4ccc(C5(C(=O)O)CC5)cc4)cc3F)cnn2C)n1 [Example 11, 1-[4-[5-fluoro-6-[5-[(6-isopropoxypyrazin-2-yl)amino]-1-methyl-pyrazol-4-yl]-3-pyridyl]phenyl]cyclopropanecarboxylic Acid; Hydrochloride] | 11.1 | 495 | 10 | 34.6
Cn1ncc(-c2ccc(-c3ccc(C4(C(=O)O)CC4)cc3)cn2)c1Nc1cncc(C(C)(F)F)n1 [Example 12, 1-[4-[6-[5-[[6-(1,1-difluoroethyl)pyrazin-2-yl]amino]-1-methyl-pyrazol-4-yl]-3-pyridyl]phenyl]cyclopropanecarboxylic Acid; Hydrochloride] | 24.4 | 4280 | 14.4 | 40.9
Cn1ncc(-c2ccc(-c3ccc(C4(C(=O)O)CC4)cc3)cn2)c1Nc1cncc(C(C)(C)F)n1 [Example 13, 1-[4-[6-[5-[[6-(1-fluoro-1-methyl-ethyl)pyrazin-2-yl]amino]-1-methyl-pyrazol-4-yl]-3-pyridyl]phenyl]cyclopropanecarboxylic Acid; Hydrochloride] | 44 | 804 | 10.5 | 28
COCc1cc(C2(C(=O)O)CC2)ccc1-c1ccc(-c2cnn(C)c2Nc2cncc(C(C)C)n2)nc1 [Example 14, 1-[4-[6-[5-[(6-isopropylpyrazin-2-yl)amino]-1-methyl-pyrazol-4-yl]-3-pyridyl]-3-(methoxymethyl)phenyl]cyclopropanecarboxylic Acid; Hydrochloride] | 45.8 | > 10000 | 13.2 | 
CC(C)c1cncc(Nc2c(-c3ccc(-c4ccc(C5(C(=O)O)CC5)cc4CC#N)cn3)cnn2C)n1 [Example 15, 1-[3-(cyanomethyl)-4-[6-[5-[(6-isopropylpyrazin-2-yl)amino]-1-methyl-pyrazol-4-yl]-3-pyridyl]phenyl]cyclopropanecarboxylic Acid; Hydrochloride] | 42.9 | > 10000 | 19.4 | 94.8
CC(C)c1cncc(Nc2c(-c3ccc(-c4ccc(C5(C(=O)O)CC5)cc4C#N)cn3)cnn2C)n1 [Example 16, 1-[3-cyano-4-[6-[5-[(6-isopropylpyrazin-2-yl)amino]-1-methyl-pyrazol-4-yl]-3-pyridyl]phenyl]cyclopropanecarboxylic Acid; Hydrochloride] | 29.3 | 4620 | 18.2 | 53.8
CC(C)c1cncc(Nc2c(-c3cnc(-c4ccc(C5(C(=O)O)CC5)cc4)cn3)cnn2C)n1 [Example 19, 1-[4-[5-[5-[(6-isopropylpyrazin-2-yl)amino]-1-methyl-pyrazol-4-yl]pyrazin-2-yl]phenyl]cyclopropanecarboxylic Acid; Hydrochloride] | 88.1 | 2400 | 16.3 | 
